A short description of the series: in vivo. The settings on record: male, CD-1, mouse, iv. As for the experimental part:
Male CD-1 mice ranging from 20-25 g body weight were split up into groups of three. Each mouse was administered with a single dose of CPT319A or CPT307A at 5 mg/kg DXR by intravenous (IV) injection through the tail vein. A non-liposomal combination of DXR was used as the control. Blood samples were collected at 0.167, 1, 3, 8, 24, and 48 h after the injection. DXR plasma concentration was determined by liquid chromatography-tandem mass spectrometry (LC-MS-MS).

Structures are written as SMILES.

For orientation: AUC means the area under the concentration-time curve, a measure of exposure. As to `COc1cccc2c1C(=O)c1c(O)c3c(c(O)c1C2=O)C[C@@](O)(C(=O)CO)C[C@@H]3O[C@H]1C[C@H](N)[C@H](O)[C@H](C)O1` [Naked DXR, doxorubicin], the AUC is 688 ng·h/mL. Besides, the AUC (5 mg/kg) came to 688 ng·h/mL.
